From PubChem BioAssay AID256 (DTP/NCI, 2004)
Several values for one entry are separate records, joined by “and”; a condition that tells them apart may be missing. Equal values may be shown once. Toxic doses and inconclusive results are not listed. The calls were made as follows: active = survival T/C of 150% or more; inactive = T/C below 125% in these data.

Test system: CD2F1 mice, L1210 leukemia ip, survival T/C
Test: NCI In Vivo Anticancer Drug Screen. Data for tumor model L1210 Leukemia (intraperitoneal) in CD2F1 (CDF1) mice
Conditions: higher = longer survival
Procedure, shortened: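 Activity against a transplanted murine tumor was judged by comparing the compound group with a vehicle group. The outcome in the treated animals was divided by that in the controls.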

[1] = endpoint: mean survival time, dose: 100.0 mg/kg/injection, schedule: Q04DX003 (ip), vehicle: saline with Tween-80
[2] = endpoint: mean survival time, dose: 200.0 mg/kg/injection, schedule: Q04DX003 (ip), vehicle: saline with Tween-80
[3] = endpoint: mean survival time, dose: 400.0 mg/kg/injection, schedule: Q04DX003 (ip), vehicle: saline with Tween-80
[4] = endpoint: mean survival time, dose: 100.0 mg/kg/injection, schedule: Q01DX009 (ip), vehicle: saline with Tween-80
[5] = endpoint: mean survival time, dose: 200.0 mg/kg/injection, schedule: Q01DX009 (ip), vehicle: saline with Tween-80

Measured: T/C

CCOC(=O)/C=C/C(=O)O.[Cu+2]
inactive: endpoint: mean survival time, dose: 1.56 mg/kg/injection, schedule: Q04DX003 (ip), vehicle: saline 108 % of control | endpoint: mean survival time, dose: 3.12 mg/kg/injection, schedule: Q04DX003 (ip), vehicle: saline 108 % of control | endpoint: mean survival time, dose: 6.25 mg/kg/injection, schedule: Q04DX003 (ip), vehicle: saline 104 % of control

CC/C(=C(/CC)c1ccc(O)cc1)c1ccc(O)cc1
inactive: endpoint: median survival time, dose: 12.5 mg/kg/injection, schedule: Q01DX009 (sc), vehicle: steriod suspending solution 114 % of control and 105 % of control | endpoint: median survival time, dose: 25.0 mg/kg/injection, schedule: Q01DX009 (sc), vehicle: steriod suspending solution 114 % of control and 100 % of control | endpoint: median survival time, dose: 50.0 mg/kg/injection, schedule: Q01DX009 (sc), vehicle: steriod suspending solution 114 % of control and 105 % of control | endpoint: median survival time, dose: 100.0 mg/kg/injection, schedule: Q01DX009 (sc), vehicle: steriod suspending solution 100 % of control

COC(=O)C1(C)CCCC2(C)C1CCC1(O)C(O)C(C(C)C)=CCC21 (centres undefined)
inactive: [1] 92 % of control | [2] 93 % of control | [3] 92 % of control

C=C(Br)CN=C=S
inactive: endpoint: mean survival time, dose: 12.5 mg/kg/injection, schedule: Q04DX003 (ip), vehicle: saline 94 % of control | endpoint: mean survival time, dose: 25.0 mg/kg/injection, schedule: Q04DX003 (ip), vehicle: saline 94 % of control | endpoint: mean survival time, dose: 50.0 mg/kg/injection, schedule: Q04DX003 (ip), vehicle: saline 88 % of control

O=C1NCC2(CCN(Cc3ccccc3)CC2)N1c1ccccc1
inactive: [1] 93 % of control | [2] 89 % of control | [3] 89 % of control

CC(C)(C(=O)O)C(C)(C)C(=O)O
inactive: endpoint: mean survival time, dose: 100.0 mg/kg/injection, schedule: Q01DX001 (ip), vehicle: saline with Tween-80 98 % of control | endpoint: mean survival time, dose: 200.0 mg/kg/injection, schedule: Q01DX001 (ip), vehicle: saline with Tween-80 98 % of control | endpoint: mean survival time, dose: 400.0 mg/kg/injection, schedule: Q01DX001 (ip), vehicle: saline with Tween-80 101 % of control

C1CCC2CCCN2CC1 (centres undefined)
inactive: endpoint: mean survival time, dose: 12.5 mg/kg/injection, schedule: Q01DX009 (ip), vehicle: saline with Tween-80 95 % of control | endpoint: mean survival time, dose: 12.5 mg/kg/injection, schedule: Q04DX003 (ip), vehicle: acetone 94 % of control | endpoint: mean survival time, dose: 25.0 mg/kg/injection, schedule: Q01DX009 (ip), vehicle: saline with Tween-80 94 % of control | endpoint: mean survival time, dose: 25.0 mg/kg/injection, schedule: Q04DX003 (ip), vehicle: acetone 92 % of control | endpoint: mean survival time, dose: 50.0 mg/kg/injection, schedule: Q04DX003 (ip), vehicle: acetone 100 % of control

CCOC(=O)CC(C)(O)Cc1ccccc1 (centres undefined)
inactive: endpoint: mean survival time, dose: 100.0 mg/kg/injection, schedule: Q04DX003 (ip), vehicle: acetone 96 % of control | endpoint: mean survival time, dose: 200.0 mg/kg/injection, schedule: Q04DX003 (ip), vehicle: acetone 87 % of control | endpoint: mean survival time, dose: 400.0 mg/kg/injection, schedule: Q04DX003 (ip), vehicle: acetone 102 % of control

CC1c2ccc3ccccc3c2C(=O)c2cccc(Cl)c21 (centres undefined)
inactive: endpoint: median survival time, dose: 50.0 mg/kg/injection, schedule: Q04DX002 (ip), vehicle: saline with Tween-80 100 % of control | endpoint: median survival time, dose: 100.0 mg/kg/injection, schedule: Q04DX002 (ip), vehicle: saline with Tween-80 100 % of control | endpoint: median survival time, dose: 200.0 mg/kg/injection, schedule: Q04DX002 (ip), vehicle: saline with Tween-80 111 % of control | endpoint: median survival time, dose: 400.0 mg/kg/injection, schedule: Q04DX002 (ip), vehicle: saline with Tween-80 88 % of control

COc1cc(Cl)ccc1NC(=O)Nc1cc(C)on1
inactive: endpoint: mean survival time, dose: 50.0 mg/kg/injection, schedule: Q01DX009 (ip), vehicle: saline with Tween-80 100 % of control | [4] 95 % of control | [5] 95 % of control

COc1cc(C(=O)c2c(OC)cccc2C(=O)O)c(OC)cc1C
inactive: endpoint: mean survival time, dose: 12.5 mg/kg/injection, schedule: Q01DX009 (ip), vehicle: water 100 % of control | endpoint: mean survival time, dose: 25.0 mg/kg/injection, schedule: Q01DX009 (ip), vehicle: water 100 % of control | endpoint: mean survival time, dose: 50.0 mg/kg/injection, schedule: Q01DX009 (ip), vehicle: water 95 % of control | endpoint: mean survival time, dose: 100.0 mg/kg/injection, schedule: Q01DX009 (ip), vehicle: water 95 % of control | endpoint: mean survival time, dose: 200.0 mg/kg/injection, schedule: Q01DX009 (ip), vehicle: water 97 % of control

CCOP(=O)(Cc1cccc2ccccc12)OCC
inactive: endpoint: mean survival time, dose: 100.0 mg/kg/injection, schedule: Q01DX001 (ip), vehicle: Klucel (hydroxypropylcellulose) (HPC) 103 % of control | endpoint: mean survival time, dose: 200.0 mg/kg/injection, schedule: Q01DX001 (ip), vehicle: Klucel (hydroxypropylcellulose) (HPC) 96 % of control | endpoint: mean survival time, dose: 400.0 mg/kg/injection, schedule: Q01DX001 (ip), vehicle: Klucel (hydroxypropylcellulose) (HPC) 100 % of control

c1cc2c(c(CC3CO3)c1CC1CO1)OCCOCCOCCOCCO2 (centres undefined)
inactive: endpoint: median survival time, dose: 12.5 mg/kg/injection, schedule: Q01DX009 (ip), vehicle: saline + alcohol 112 % of control and 97 % of control and 98 % of control | endpoint: median survival time, dose: 25.0 mg/kg/injection, schedule: Q01DX009 (ip), vehicle: saline + alcohol 123 % of control and 97 % of control and 98 % of control | endpoint: median survival time, dose: 50.0 mg/kg/injection, schedule: Q01DX009 (ip), vehicle: saline + alcohol 102 % of control and 104 % of control | endpoint: median survival time, dose: 100.0 mg/kg/injection, schedule: Q01DX009 (ip), vehicle: saline + alcohol 119 % of control and 93 % of control and 110 % of control | endpoint: median survival time, dose: 200.0 mg/kg/injection, schedule: Q01DX009 (ip), vehicle: saline + alcohol 120 % of control

O=C(c1ccccc1)c1ccc2c(c1)-c1ccccc1-2
inactive: [4] 94 % of control | [1] 100 % of control | [5] 94 % of control | [2] 93 % of control | endpoint: mean survival time, dose: 400.0 mg/kg/injection, schedule: Q01DX009 (ip), vehicle: saline with Tween-80 93 % of control | [3] 95 % of control

O=C(O)/C=N/NS(=O)(=O)c1ccc2ccccc2c1
inactive: endpoint: mean survival time, dose: 12.5 mg/kg/injection, schedule: Q04DX003 (ip), vehicle: other 114 % of control | endpoint: mean survival time, dose: 25.0 mg/kg/injection, schedule: Q04DX003 (ip), vehicle: other 119 % of control | endpoint: mean survival time, dose: 50.0 mg/kg/injection, schedule: Q04DX003 (ip), vehicle: other 119 % of control | endpoint: mean survival time, dose: 100.0 mg/kg/injection, schedule: Q04DX003 (ip), vehicle: other 110 % of control | endpoint: mean survival time, dose: 200.0 mg/kg/injection, schedule: Q04DX003 (ip), vehicle: other 103 % of control

NC(Cc1cccc(NP(=S)(N2CC2)N2CC2)c1)C(=O)O (centres undefined)
inactive: endpoint: mean survival time, dose: 100.0 mg/kg/injection, schedule: Q01DX009 (ip), vehicle: saline 119 % of control | endpoint: mean survival time, dose: 100.0 mg/kg/injection, schedule: Q04DX003 (ip), vehicle: saline 113 % of control | endpoint: mean survival time, dose: 200.0 mg/kg/injection, schedule: Q01DX009 (ip), vehicle: saline 100 % of control

O=C(CNC(=O)Nc1cccc([N+](=O)[O-])c1)NNC(=O)Nc1ccccc1F
inactive: [4] 88 % of control | [5] 88 % of control

O=P1(N(CCCl)CCCl)NCC2(O1)C1CC3CC(C1)CC2C3 (centres undefined)
inactive: endpoint: mean survival time, dose: 15.6 mg/kg/injection, schedule: Q01DX001 (ip), vehicle: distilled water + Tween-80 101 % of control | endpoint: mean survival time, dose: 31.3 mg/kg/injection, schedule: Q01DX001 (ip), vehicle: distilled water + Tween-80 96 % of control | endpoint: mean survival time, dose: 62.5 mg/kg/injection, schedule: Q01DX001 (ip), vehicle: distilled water + Tween-80 101 % of control | endpoint: mean survival time, dose: 125.0 mg/kg/injection, schedule: Q01DX001 (ip), vehicle: distilled water + Tween-80 96 % of control | endpoint: mean survival time, dose: 250.0 mg/kg/injection, schedule: Q01DX001 (ip), vehicle: distilled water + Tween-80 96 % of control | endpoint: mean survival time, dose: 500.0 mg/kg/injection, schedule: Q01DX001 (ip), vehicle: distilled water + Tween-80 91 % of control
